We go through 5 compounds from ChEMBL document CHEMBL1201862, “PubChem BioAssay data set” (2004).

Some test systems named below: SN12C; LOX IMVI; OVCAR-8; SK-OV-3; OVCAR-4; UO-31; RPMI-8226; KM12; SK-MEL-2; NCI-H522; SNB-19; U-251; HOP-92; SK-MEL-28; A498; HCT-116; UACC-62; IGROV-1.
Holding throughout (assay): growth of human tumour cells (NCI), 48 h

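Values below derive from 48-hour exposures of cells grown in 96-well plates, with endpoints linearly interpolated between the two concentrations bracketing the appropriate inhibition level. The concentration for 50% growth inhibition is given as GI50.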 Active and inactive are the calls of the source. No stated cut-off is given here; in the data, active = GI50 up to about 1.1 µM and inactive = higher.

For the compound `COc1cc(C(=O)CC2(O)C(=O)Nc3c(Cl)cc(Cl)cc32)ccc1O` (stereo unspecified), the GI50 was > 100 µM (inactive) in the experiment on SN12C; > 100 µM (inactive) with LOX IMVI; 63 µM (inactive) in the experiment on OVCAR-8; 14.9 µM (inactive) with SK-OV-3; 60.8 µM (inactive) in the experiment with OVCAR-4; 37.9 µM (inactive) with UO-31. Moreover, the GI50 is 24.4 µM (inactive) in the experiment with RPMI-8226; 78.3 µM (inactive) in the experiment with KM12; 87.1 µM (inactive) with SK-MEL-2; 47.8 µM (inactive) in the experiment on NCI-H522; 76.7 µM (inactive) in the experiment on SNB-19; 69 µM (inactive) with U-251. For the same compound, the GI50 in the experiment on HOP-92 was 23.8 µM (inactive); in the experiment with SK-MEL-28, > 100 µM (inactive).

On to `CN(C)CC(C)(C)C(=O)/C=C/c1ccccc1`, for which the GI50 in the experiment with SN12C was 13.3 µM (inactive); in the experiment with LOX IMVI, 11.2 µM (inactive); with OVCAR-8 it was 18 µM (inactive); in the experiment on OVCAR-4, 14.2 µM (inactive); with UO-31 it was 11 µM (inactive); with RPMI-8226, 12.2 µM (inactive). Besides, the GI50 in the experiment with KM12 is 14.1 µM (inactive); with A498, 17 µM (inactive); in the experiment with HCT-116 it was 13.5 µM (inactive); in the experiment on UACC-62 it was 13.2 µM (inactive); in the experiment on NCI-H522, 10.3 µM (inactive); with IGROV-1, 12.9 µM (inactive). The GI50 was 15.8 µM (inactive) with SNB-19, 16.3 µM (inactive) in the experiment on U-251, 8.41 µM (inactive) in the experiment with HOP-92 and 16 µM (inactive) in the experiment on SK-MEL-28.

Take `Cc1ccc(S(=O)(=O)C(C#N)c2nc3ccccc3nc2-n2ccnc2)cc1` (stereo unspecified): the GI50 in the experiment on SN12C, in the experiment with OVCAR-8, with SK-OV-3, in the experiment with OVCAR-4, with UO-31 and with RPMI-8226 was > 100 µM (inactive) in each case. Further, the GI50 in the experiment on KM12, in the experiment on HCT-116, with SK-MEL-2, in the experiment on NCI-H522, in the experiment on IGROV-1 and in the experiment with SNB-19 was > 100 µM (inactive) each time. Besides, the GI50 with U-251, with HOP-92 and in the experiment with SK-MEL-28 was > 100 µM (inactive) each time.

With `COc1ccc(N[C@H](C[S+]([O-])c2ccc(C)cc2)c2ccc(F)cc2)cc1` (stereo partly specified), the GI50 with SN12C is 54.3 µM (inactive); in the experiment with LOX IMVI, > 100 µM (inactive); in the experiment on OVCAR-8, > 100 µM (inactive); with SK-OV-3, 72.3 µM (inactive); in the experiment on OVCAR-4, 94.2 µM (inactive); in the experiment with UO-31, > 100 µM (inactive). For the same compound, the GI50 is > 100 µM (inactive) with RPMI-8226; > 100 µM (inactive) in the experiment on KM12; > 100 µM (inactive) with HCT-116; > 100 µM (inactive) in the experiment with SK-MEL-2; 34.4 µM (inactive) in the experiment with UACC-62; 13.2 µM (inactive) in the experiment on NCI-H522. The GI50 in the experiment on IGROV-1 is < 0.01 µM (active); in the experiment with SNB-19, 35.8 µM (inactive); in the experiment with U-251, 44.5 µM (inactive); with SK-MEL-28 it was > 100 µM (inactive).

Consider `CN(C)CCn1cnc2sc3ccccc3c21`, for which the GI50 in the experiment with SN12C, in the experiment with LOX IMVI, in the experiment with OVCAR-8, in the experiment on SK-OV-3, with OVCAR-4 and with KM12 was > 100 µM (inactive) in each case. Moreover, the GI50 in the experiment on A498, in the experiment with HCT-116, with SK-MEL-2, in the experiment with UACC-62, in the experiment with NCI-H522 and in the experiment with IGROV-1 was > 100 µM (inactive) each time. In addition, the GI50 in the experiment with SNB-19, in the experiment with U-251 and with SK-MEL-28 was > 100 µM (inactive) throughout.
